For experiment [1], the target named is T1, glucagon (human, cloned into CHO cells) receptor (Homo sapiens, UniProt P47871).
T1 construct: host or cells: CHO cells
Nature of the experiment: cAMP stimulation cellular assay (DiscoveRx LeadHunter), glucagon receptor. It counts as cell-based. To be noted: 0.1% BSA.

The conditions of experiment [2]: over 26 weeks; cited from earlier work.
The conditions of experiment [3]: in 6 weeks; cited from earlier work.

T1 sequence (P47871 26-477): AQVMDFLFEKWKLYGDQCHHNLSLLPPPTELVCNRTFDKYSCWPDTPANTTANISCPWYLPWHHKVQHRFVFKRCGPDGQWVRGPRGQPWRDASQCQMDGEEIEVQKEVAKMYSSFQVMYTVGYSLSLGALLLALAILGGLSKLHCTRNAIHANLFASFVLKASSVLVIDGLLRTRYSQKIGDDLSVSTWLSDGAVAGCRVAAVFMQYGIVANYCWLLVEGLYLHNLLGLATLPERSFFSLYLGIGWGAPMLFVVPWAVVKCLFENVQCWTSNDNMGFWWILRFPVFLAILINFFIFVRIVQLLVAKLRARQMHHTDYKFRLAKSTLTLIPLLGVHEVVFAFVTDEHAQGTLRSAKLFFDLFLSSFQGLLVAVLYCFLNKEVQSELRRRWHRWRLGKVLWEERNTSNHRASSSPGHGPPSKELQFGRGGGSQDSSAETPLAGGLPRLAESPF

In the case of `CC[C@H](C)[C@H](NC(=O)[C@H](Cc1ccccc1)NC(=O)[C@H](CCC(=O)O)NC(=O)[C@@H]1CCCCNC(=O)CC[C@H](NC(=O)[C@H](CC(=O)O)NC(=O)[C@H](CC(C)C)NC(=O)[C@H](Cc2ccc(O)cc2)NC(=O)[C@H](CCCCN)NC(=O)[C@H](CO)NC(=O)[C@H](Cc2ccc(O)cc2)NC(=O)[C@H](CC(=O)O)NC(=O)[C@H](CO)NC(=O)[C@@H](NC(=O)[C@H](Cc2ccccc2)NC(=O)[C@@H](NC(=O)CNC(=O)[C@H](CCC(N)=O)NC(=O)C(C)(C)NC(=O)[C@@H](N)Cc2c[nH]cn2)[C@@H](C)O)[C@@H](C)O)C(=O)N[C@@H](CCC(N)=O)C(=O)N[C@@H](C)C(=O)N[C@@H](C)C(=O)N1)C(=O)N[C@@H](CCCCNC(=O)[C@H]1O[C@@H](OCCCCCCCCCCCCCCCCCC(=O)O)[C@H](O)[C@@H](O)[C@@H]1O)C(=O)N[C@@H](Cc1c[nH]c2ccccc12)C(=O)N[C@@H](CC(C)C)C(=O)N[C@@H](CC(C)C)C(=O)N[C@@H](CCC(N)=O)C(=O)N[C@H](C(N)=O)[C@@H](C)O` [EU-A1872], the EC50 (in general, the concentration giving half of the maximal effect) in experiment [1] stood at 2.62 nM.
With `CCCCCCCCCCCCCCCC(=O)N[C@@H](CCC(=O)NCCCC[C@H](NC(=O)[C@H](CC(=O)O)NC(=O)[C@H](CO)NC(=O)[C@@H](NC(=O)[C@H](Cc1ccccc1)NC(=O)[C@@H](NC(=O)CNC(=O)[C@H](CCC(N)=O)NC(=O)[C@H](CO)NC(=O)[C@@H](N)Cc1c[nH]cn1)[C@@H](C)O)[C@@H](C)O)C(=O)N[C@@H](CO)C(=O)N[C@@H](CCC(=O)O)C(=O)N[C@@H](Cc1ccc(O)cc1)C(=O)N[C@@H](CC(C)C)C(=O)N[C@@H](CC(=O)O)C(=O)N[C@@H](CO)C(=O)N[C@@H](CCC(=O)O)C(=O)N[C@@H](CCCNC(=N)N)C(=O)N[C@@H](C)C(=O)N[C@@H](CCCNC(=N)N)C(=O)N[C@@H](CC(=O)O)C(=O)N[C@@H](Cc1ccccc1)C(=O)N[C@H](C(=O)N[C@@H](C)C(=O)N[C@@H](Cc1c[nH]c2ccccc12)C(=O)N[C@@H](CC(C)C)C(=O)N[C@@H](CCC(=O)O)C(=O)N[C@@H](C)C(=O)NCC(=O)NCC(=O)O)C(C)C)C(=O)O` [cotadutide], the weight loss in experiment [2] is on record as 5.4%. In addition, the “reduction in liver fat content / hepatic fat fraction” value in experiment [3] is on record as 39%.

Values taken from patent US12171806B2, “Therapeutic regimens and methods for lowering blood glucose and/or body weight using GLP-1R and GCGR balanced agonists” (priority 2021, dated 2024).
